# Measurements taken from article PMC6478823, “A suite of phenotypic assays to ensure pipeline diversity when prioritizing drug-like Cryptosporidium growth inhibitors” (Nature Communications, 2019).
# Where two headings read alike, the source gives them in different places.
# How the values were obtained:
# [1] = test system: C. parvum; experiment: 48 h Cryptosporidium growth inhibition assay; type: cell-based, Cryptosporidium parvum; details: compound added 3 h post-infection, read at 48 h
# In short: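 HCT-8 monolayers were infected with excysted C. parvum Iowa oocysts (5500/well), with compounds added 3 h post-infection and incubation for a further 45 h at 37 °C. Vacuoles were stained with fluorescein–Vicia villosa lectin and nuclei with Hoechst, then imaged and counted automatically to derive EC50 and EC90.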
# [2] = test system: C. parvum DMC1 expression; experiment: Sexual differentiation assay (DMC1 expression); type: cell-based, Cryptosporidium parvum; details: compound at asexual EC90, 48-72 h; for Asexual to sexual differentiation: Mean % DMC1 inhibition (normalized to host nuclei), Average: average of replicates; for Asexual to sexual differentiation: Mean % DMC1 inhibition (normalized to host nuclei), Replicate 1a: single replicate 1; for Asexual to sexual differentiation: Mean % DMC1 inhibition (normalized to host nuclei), Replicate 2a: single replicate 2; for Asexual to sexual differentiation: Mean % DMC1 inhibition (normalized to host nuclei), Replicate 3a: single replicate 3
# In short: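 High-content microscopy of infected cells fixed at set times post-infection, stained with anti-DMC1 mAb 1H10G7, Vicia villosa lectin and Hoechst; lectin-positive parasites counted, then DMC1-positive.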
# [3] = read-out: Regular 3 to 48 h assay in vitro EC90, C. parvum in HCT-8 cells
Structure (SMILES),"EC90 ([1]; Cryptosporidium parvum, read-out: Regular 3 to 48 h assay in vitro EC90, C. parvum in HCT-8 cells) [µM]","Asexual to sexual differentiation: Mean % DMC1 inhibition (normalized to host nuclei), Average [2] [%]","Asexual to sexual differentiation: Mean % DMC1 inhibition (normalized to host nuclei), Replicate 1a [2] [%]","Asexual to sexual differentiation: Mean % DMC1 inhibition (normalized to host nuclei), Replicate 2a [2] [%]","EC90 ([1]; Cryptosporidium parvum, HCT-8, read-out: Regular 3 to 48 h assay in vitro EC90, C. parvum in HCT-8 cells) [µM]","Asexual to sexual differentiation: Mean % DMC1 inhibition (normalized to host nuclei), Replicate 3a [2] [%]","Asexual to sexual differentiation: Mean % DMC1 inhibition (normalized to host nuclei), Replicate 4a ([2]; single replicate 4) [%]","Asexual to sexual differentiation: Mean % DMC1 inhibition (normalized to host nuclei), Replicate 5a ([2]; single replicate 5) [%]","EC90 [1, 3] [µM]"
Cc1cn(-c2cc(NC(=O)c3ccc(C)c(Nc4nccc(-c5cccnc5)n4)c3)cc(C(F)(F)F)c2)cn1 [Nilotinib],16.5,70.96,66.12,75.79,–,–,–,–,–
CC(=O)Oc1ccccc1C(=O)Nc1ncc([N+](=O)[O-])s1 [Nitazoxanide],–,81.79,79.14,81.57,3.52,59.72,95.07,93.41,–
Cc1cccc(-n2ncc3c(O)nc(-n4nc(C)cc4NC(=O)c4cc5ccccc5o4)nc32)c1 [C-1],–,30.35,26.21,37.12,–,27.73,–,–,0.65
CSc1ccccc1C(=O)Nc1nc(-c2ccccn2)cs1 [MMV001246],–,45.66,48.08,43.24,–,–,–,–,5.39
